According to patent US3947411A, “Novel 1-aryl-2-arylalkyl-3-or-4-[4'-(substituted-alkyl)piperazino-1']butanols- 2-or-butenes-1, and methods of manufacture thereof” (Warner-Lambert Company, priority 1972, dated 1976):
Converted amounts (≈) assume the structure as drawn.

Key:
Aspergillus niger = test: Agar well inhibition zone test against fungi, Aspergillus niger (Table II); settings: quantity per well giving inhibition zone (500, 50, 5 μg tested); Sabouraud agar, 28°, 48 hours
Procedure: The efficacy of the compounds against fungi was tested as follows:
The test organisms, in this case the blastomycete Candida albicans and the mold Aspergillus niger, were inoculated onto Sabouraud agar plates by pouring a photometrically adjusted standard suspension of organisms on the plate. After inoculation, wells with a diameter of 5.0 mm were punched in the agar, and filled with 50 ul of the compound solution mentioned before. The quantity of compound applied thus amounted to 500 μg, 50 μg and 5 μg. After incubation at 28° for 48 hours, the quantity of compound was determined at which an inhibition of the organism's growth, in form of an inhibition zone around the corresponding well, was present.

Candida albicans = test: Agar well inhibition zone test against fungi, Candida albicans (Table II); settings: quantity per well giving inhibition zone (500, 50, 5 μg tested); Sabouraud agar, 28°, 48 hours
Escherichia coli = test: Agar well inhibition zone test against bacteria, Escherichia coli (Table III); settings: quantity per well giving inhibition zone (500, 50, 5 μg tested); nutrient agar, 37°, 24 hours
A. niger [1] = test: Minimum inhibitory concentration for fungi in presence of serum, A. niger (Table VI); format: cell-based; settings: Aspergillus niger; Sabouraud nutrient broth + 10% bovine serum, 28°C, 48 hours
A. niger [2] = test: Minimum inhibitory concentration for fungi, tube dilution, A. niger (Table IV); settings: Aspergillus niger, 48 h, read-out: Minimum Inhibitory Concentration, A. niger
Procedure: (§1) A tube dilution series of the respective compound in Sabouraud nutrient broth, whose individual tubes contained concentrations of 1024 μg, 512 μg, 256 μg, 128 μg, 64 μg, 32 μg, 16 μg, 8 μg, 4 μg, 2 μg, 1.1 μg and 0.5 μg/ml, was prepared and inoculated with a photometrically standardized suspension of the test organisms or the spores thereof.

C. albicans [3] = test: Minimum inhibitory concentration for fungi, tube dilution, C. albicans (Table IV); settings: Candida albicans, 48 h, read-out: Minimum Inhibitory Concentration, C. albicans
Procedure: as §1

Solubility in water = format: physicochemical; settings: hydrochlorides or oxalates, read-out: solubilities (in water)
Procedure: The following list contains examples of those compounds which are made according to the methods disclosed. (The individual compounds are identified by elementary analyses and infrared spectra, by ultra-violet or nuclear resonance spectra, if necessary.) Individual melting points and solubilities (in water) are also given as is the method by which each compound is prepared.
The melting points and solubilities are given for the Hydrochlorides I - XVI; XVIII - XXVII; XXIX - XXXV; XXXVII - XLII; XLIV - LXII; LXIV - LXVII, and the Oxalates XVII; […]; XXXVI; LXIII.

C. albicans [4] = test: Minimum inhibitory concentration for fungi in presence of serum, C. albicans (Table VI); format: cell-based; settings: Candida albicans; Sabouraud nutrient broth + 10% bovine serum, 28°C, 48 hours
Staphylococcus aureus = test: Agar well inhibition zone test against bacteria, Staphylococcus aureus (Table III); settings: quantity per well giving inhibition zone (500, 50, 5 μg tested); nutrient agar, 37°, 24 hours
Procedure: The efficacy of the compounds against bacteria was tested as follows:
The test organisms, in this case Staphylococcus aureus and Escherichia coli, were inoculated on nutrient agar as described in Example 12, wells were punched, and the solutions of the compounds were transferred to fill the wells. The quantity of compound in the wells amounted again to 500 μg, 50 μg and 5 μg.
After incubation a 37° for 24 hours the quantity of compound was determined at which an inhibition of the organism's growth, in the form of an inhibition zone around the corresponding well, occurred.

Staph. aureus = test: Minimum inhibitory concentration for bacteria, tube dilution, Staph. aureus (Table V); settings: Staphylococcus aureus, 48 h, read-out: Minimum Inhibitory Concentration, Staph. aureus
Procedure: A tube dilution series of the respective compound in nutrient broth whose individual tubes contained concentrations of 1024 μg, 512 μg, 256 μg, 128 μg, 64 μg, 32 μg, 1 μg, 8 μg, 4 μg, 2 μg, 1.1 μg and 0.5 μg/ml was prepared and inoculated with a photometrically standardized suspension of the test organisms.

[5] = test system: Mycobacterium tuberculosis II 37 RV (typus humanus); test: Efficacy against Mycobacteria, Tb-broth dilution series (Table I); format: cell-based; settings: 504 h, Dubos Tb-broth + 10% bovine serum, 21 days, read-out: Minimum Inhibitory Concentration

| SMILES | Inhibition Area at μg, Asp. niger (Aspergillus niger) | Inhibition Area at μg, Cand. albicans (Candida albicans) | Inhibition Area at μg, E. coli (Escherichia coli) | MIC (A. niger [1]) | MIC (A. niger [2]) | MIC (C. albicans [3]) | solubility (Solubility in water) | MIC (C. albicans [4]) | Inhibition Area at μg, Staph. aureus (Staphylococcus aureus) | MIC (Staph. aureus) | MIC [5] |
| --- | --- | --- | --- | --- | --- | --- | --- | --- | --- | --- | --- |
| CN1CCN(CCCCCCN2CCN(CCC(=Cc3ccccc3)Cc3ccccc3)CC2)CC1 [LXV, 1-phenyl-2-benzyl-4-[4'-w-(4"-methyl-piperazino-1")-n-hexyl-piperazino-1']-butene-1] | 5 µg | 5 µg | 500 µg | 8 µg/mL | 8 µg/mL (≈ 16.4 µM) | 32 µg/mL (≈ 65.5 µM) | 100 mg/mL (≈ 205000 µM) | 32 µg/mL | 500 µg | – | – |
| CC(C(=Cc1ccccc1)Cc1ccccc1)N1CC[N+]2(CCCCCC2)CC1 (stereo not shown) [LXVII, hexahydro-azepinium-1-spiro-1'-piperazinium-4'-(3-benzyl-4-phenyl-but-3-en-2-yl)-chloride] | 50 µg | 50 µg | 500 µg | 128 µg/mL | 128 µg/mL | 128 µg/mL | 10 mg/mL | 64 µg/mL | 50 µg | 8 µg/mL | – |
| CC1CN(CCN2CCN(C(C)C(O)(Cc3ccccc3)Cc3ccccc3)CC2)CCO1 (stereo not drawn) [VI, 1-phenyl-2-benzyl-3-{4'-[β-(2"-methyl-morpholino)-ethyl]-piperazino-1'}-butanol-2] | 500 µg | 500 µg | > 500 µg | – | – | – | 100 mg/mL (≈ 221000 µM) | – | > 500 µg | – | 100 µg/mL |
| CC(N1CCN(CCN2CCN(C)CC2)CC1)C(O)(Cc1ccccc1)Cc1ccccc1 (stereo not drawn) [X, 1-phenyl-2-benzyl-3-{4'-[β-(4"-methyl-piperazino-1")-ehtyl]-piperazino-1'}-butanol-2] | 50 µg | 50 µg | 500 µg | 16 µg/mL | 16 µg/mL (≈ 35.5 µM) | 16 µg/mL (≈ 35.5 µM) | 100 mg/mL (≈ 222000 µM) | 16 µg/mL | 500 µg | – | – |
| CC(c1ccccc1)N1CCN(CCN2CCN(C(C)C(O)(Cc3ccccc3)Cc3ccccc3)CC2)CC1 (stereo not drawn) [XIII, 1-phenyl-2-benzyl-3-{4'-[β-(4"-α-phenethyl-piperazino-1")-ethyl]-piperazino-1'}-butanol-2] | 500 µg | 500 µg | 500 µg | 256 µg/mL | – | – | 100 mg/mL (≈ 185000 µM) | 513 µg/mL | 5 µg | 32 µg/mL (≈ 59.2 µM) | – |
| CC(N1CCN(CCN2CCN(CCc3ccccc3)CC2)CC1)C(O)(Cc1ccccc1)Cc1ccccc1 (stereo not drawn) [XIV, 1-phenyl-2-benzyl-3-{4'-[β-(4"-β-phenethyl-piperazino-1")-ethyl]-piperazino-1'}-butanol-2] | 50 µg | 50 µg | 500 µg | 64 µg/mL | 16 µg/mL (≈ 29.6 µM) | 32 µg/mL (≈ 59.2 µM) | 100 mg/mL (≈ 185000 µM) | 128 µg/mL | 50 µg | 32 µg/mL (≈ 59.2 µM) | – |
| CC(N1CCN(CCCl)CC1)C(O)(Cc1ccccc1)Cc1ccccc1 (stereo not drawn) [XLV, 1-phenyl-2-benzyl-3-[4'-(β-chloro-ethyl)-piperazino-1']-butanol-2] | 500 µg | 50 µg | 500 µg | – | – | > 1020 µg/mL | 25 mg/mL (≈ 64600 µM) | – | 50 µg | > 1020 µg/mL | 100 µg/mL |
| CC(N1CCN(CCCCCCN2CCCCC2)CC1)C(O)(Cc1ccccc1)Cc1ccccc1 (stereo not shown) [XX, 1-phenyl-2-benzyl-3-[4'-(w-piperidino-n-hexyl)-piperazino-1']-butanol-2] | 5 µg | 50 µg | 500 µg | 8 µg/mL | 4 µg/mL (≈ 8.13 µM) | 64 µg/mL (≈ 130 µM) | 100 mg/mL (≈ 203000 µM) | 128 µg/mL | 50 µg | 128 µg/mL (≈ 260 µM) | – |
| Cc1cccc(CC(O)(Cc2cccc(C)c2)C(C)N2CCN(CCN3CCCCC3)CC2)c1 (stereo not drawn) [XXI, 1-m-tolyl-2-m-methylbenzyl-3-[4'-(β-piperidino-ethyl)-piperazino-1']-butanol-2] | 5 µg | 50 µg | > 500 µg | 128 µg/mL | 4 µg/mL (≈ 8.63 µM) | 8 µg/mL (≈ 17.3 µM) | 100 mg/mL (≈ 216000 µM) | 256 µg/mL | 5 µg | 64 µg/mL (≈ 138 µM) | – |
| CC(N1CCN(Cc2cccnc2)CC1)C(O)(Cc1ccccc1)Cc1ccccc1 (stereo not shown) [XXIII, 1-phenyl-2-benzyl-3-[4'-(3"-pyridylmethyl)-piperazino-1']-butanol-2] | > 500 µg | 500 µg | > 500 µg | – | – | – | 50 mg/mL (≈ 120000 µM) | – | 500 µg | – | 1000 µg/mL |
| CC(N1CCN(Cc2ccncc2)CC1)C(O)(Cc1ccccc1)Cc1ccccc1 (stereo not shown) [XXIV, 1-phenyl-2-benzyl-3-[4'-(4"-pyridylmethyl)-piperazino-1']-butanol-2] | > 500 µg | > 500 µg | > 500 µg | 128 µg/mL | – | – | 100 mg/mL (≈ 241000 µM) | 128 µg/mL | > 500 µg | – | – |
| CC(C(=Cc1ccccc1)Cc1ccccc1)N1CCN(CCN(C(C)C)C(C)C)CC1 (stereo not drawn) [XXVIII, 1-phenyl-2-benzyl-3-[4'-(β-diisopropylamino-ethyl)-piperazino-1']-butene-1] | 50 µg | 50 µg | 500 µg | > 1020 µg/mL | 32 µg/mL (≈ 73.8 µM) | 64 µg/mL (≈ 148 µM) | 10 mg/mL (≈ 23100 µM) | 256 µg/mL | 50 µg | 64 µg/mL (≈ 148 µM) | – |
| CC1CCN(CCN2CCN(C(C)C(=Cc3ccccc3)Cc3ccccc3)CC2)CC1 (stereo not drawn) [XXXV, 1-phenyl-2-benzyl-3-{4'-[β-(4"-methylpiperidino)-ethyl]-piperazino-1'}-butene-1] | 50 µg | 50 µg | 500 µg | 128 µg/mL | 8 µg/mL (≈ 18.5 µM) | 8 µg/mL (≈ 18.5 µM) | 10 mg/mL (≈ 23200 µM) | 32 µg/mL | 50 µg | 256 µg/mL (≈ 593 µM) | – |
| CC(C(=Cc1ccccc1)Cc1ccccc1)N1CCN(CCN2CCN(C)CC2)CC1 (stereo not drawn) [XXXVI, 1-phenyl-2-benzyl-3-{4'-[β-(4"-methylpiperazino-1")-ethyl]-piperazino-1'}-butene-1] | 50 µg | 50 µg | > 500 µg | 8 µg/mL | 2 µg/mL (≈ 4.62 µM) | 4 µg/mL (≈ 9.25 µM) | < 10 mg/mL | 32 µg/mL | 500 µg | – | – |
| CC(C(=Cc1ccccc1)Cc1ccccc1)N1CCN(CCN2CCN(C(C)c3ccccc3)CC2)CC1 (stereo not drawn) [XXXVIII, 1-phenyl-2-benzyl-3-{4'-[β-(4"-α-phenethyl-piperazino-1")-ethyl]-piperazino-1'}-butene-1] | 500 µg | 500 µg | 500 µg | > 1020 µg/mL | – | – | 100 mg/mL (≈ 191000 µM) | > 1020 µg/mL | 5 µg | 128 µg/mL (≈ 245 µM) | – |
